According to US10669272B2, “Substituted naphthyridinone compounds useful as T cell activators” (BRISTOL-MYERS SQUIBB COMPANY, priority 2018, dated 2020):
pEC50, pIC50: −log10 of the molar value. Where a name gives a salt, the structure may show the parent alone. Read-outs that look alike come from different tables or passages of the source.

Legend:
human DGKα = biological target: T1, human DGKα (Homo sapiens, UniProt P23743); test: DGKα LIPGLO assay (extruded liposome substrate), in vitro DGK inhibition; type: biochemical; conditions: read-out: DGKa LIPGLO IC50
T1 construct: TVMV protease cleavage site (C); Hexa-His (C); made in house; host or cells: Sf9 insect cells (baculovirus, Bac-to-Bac)

naïve human CD8 T cells = test: Human CD8 T cells IFN-γ assay; type: cell-based; conditions: normalized to 3 μM reference compound with anti-CD3 plus anti-CD28 as 100% activation, read-out: HuCD8 INFG Normalized EC50;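 further: Naïve human CD8 T cells stimulated with plate-bound anti-CD3 and soluble anti-CD28, IFN-γ in supernatant quantified by AlphaLISA and converted to pg/mL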
Protocol: Human CD8 T Cells IFN-γ Assay
Frozen naïve human CD8 T cells were thawed in AIM-V media, incubated for 2 h in 37° C., and counted. The 384-well tissue culture plate was coated overnight at 4° C. with 20 μL anti-human CD3 at 0.05 μg/mL in PBS, which was removed off the plate before 40,000 cells per 40 microliters CD8 T cells with 0.1 μg/mL soluble anti-human CD28 were added to each well. The compounds were transferred using an Echo liquid handler to the cell plate immediately after the cells were plated. After 20 h incubation at 37° C. incubator, 3 microliters per well supernatants transferred into a new 384-well white assay plate for cytokine measurement.
Interferon-γ (IFN-γ) was quantitated using the AlphLISA kit (Cat # AL217) as described by the manufacturer manual (Perkin Elmer). The counts from each well were converted to IFN-γ concentration (pg/mL).

[1] = tested on: OT-1 CD8+ T cells with SIINFEKL-loaded MC38 tumor cells; test: Murine cytotoxic T lymphocyte assay (IFN-γ, OT-1 CTL with MC38 tumor cells); type: cell-based, mouse; conditions: read-out: msCTL INFg IC50
Excerpt: 5. Murine Cytotoxic T Lymphocyte Assay
An antigen-specific cytolytic T-cell (CTL) assay was developed to evaluate functionally the ability of DGKα and DGKζ inhibitors to enhance effector T cell mediated tumor cell killing activity. CD8+ T-cells isolated from the OT-1 transgenic mouse recognize antigen presenting cells, MC38, that present the ovalbumin derived peptide […]. Recognition of the cognate antigen initiates the cytolytic activity of the OT-1 antigen-specific CD8+ T cells.
Functional CTL cells were generated as follows: OT-1 splenocytes from 8-12 week old mice were isolated and expanded in the presence of the […] peptide at 1 μg/mL and mIL2 at 10 U/mL. After three days, fresh media with […] was added. On day 5 of the expansion, the CD8+ T cells were isolated and ready for use. Activated CTL cells may be stored frozen for 6 months. Separately, one million MC38 tumor cells were pulsed with 1 μg/mL of […]-OVA peptide for 3 hours at 37° C. The cells were washed (3×) with fresh media to remove excess peptide. Finally, CTL cells that were pretreated with DGK inhibitors for 1 hour in a 96-well U bottom plate were combined with the antigen loaded MC38 tumor cells at a 1:10 ratio. The cells were then spun at 700 rpm for 5 min and placed in an incubator overnight at 37° C. After 24 hours, the supernatant was collected for analysis of IFN-γ cytokine levels by AlphaLisa purchased from Perkin Elmer.

human DGKζ = biological target: T2, human DGKζ (Homo sapiens, UniProt Q13574); test: DGKζ LIPGLO assay (extruded liposome substrate), in vitro DGK inhibition; type: biochemical; conditions: read-out: DGKz LIPGLO IC50
T2 construct: TVMV protease cleavage site (C); Hexa-His (C); made in house; host or cells: Sf9 insect cells (baculovirus, Bac-to-Bac)

Human venous whole blood = test: Human whole blood IFN-γ assay; type: cell-based; conditions: human whole blood, read-out: INFg Whole Blood Normalized Agonist EC50;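 further: blood from healthy donors exposed to compound for 1 h before stimulation with anti-CD3 and anti-CD28 at 1 µg/mL each, IFN-γ quantified in supernatant by AlphaLISA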
Protocol: Human Whole Blood IFN-γ Assay
Human venous whole blood (22.5 μL per well), obtained from healthy donors, was pre-treated with compounds for one hour at 37° C. in a humidified 95% air/5% CO2 incubator. The blood was stimulated with 2.5 μL anti-human CD3 and anti-CD28 mAb at a final concentration of 1 μg/mL each for 24 hours at 37° C. IFN-γ in the supernatants was measured using AlphLISA kit (Cat # AL217).

[2] = Homo sapiens, 24 h, normalized to 3 μM reference compound with anti-CD3 plus anti-CD28 as 100% activation
[3] = normalized to 3 μM reference compound with anti-CD3 plus anti-CD28 as 100% activation
[4] = Homo sapiens, 24 h, anti-CD3 plus anti-CD28, 24 hours, 3 μM reference compound = 100% activation
[5] = Mus musculus, MC-38, murine CTL, IFN-γ

T2 sequence (Q13574 with tags, fused parts or gaps isoform Q13574-4): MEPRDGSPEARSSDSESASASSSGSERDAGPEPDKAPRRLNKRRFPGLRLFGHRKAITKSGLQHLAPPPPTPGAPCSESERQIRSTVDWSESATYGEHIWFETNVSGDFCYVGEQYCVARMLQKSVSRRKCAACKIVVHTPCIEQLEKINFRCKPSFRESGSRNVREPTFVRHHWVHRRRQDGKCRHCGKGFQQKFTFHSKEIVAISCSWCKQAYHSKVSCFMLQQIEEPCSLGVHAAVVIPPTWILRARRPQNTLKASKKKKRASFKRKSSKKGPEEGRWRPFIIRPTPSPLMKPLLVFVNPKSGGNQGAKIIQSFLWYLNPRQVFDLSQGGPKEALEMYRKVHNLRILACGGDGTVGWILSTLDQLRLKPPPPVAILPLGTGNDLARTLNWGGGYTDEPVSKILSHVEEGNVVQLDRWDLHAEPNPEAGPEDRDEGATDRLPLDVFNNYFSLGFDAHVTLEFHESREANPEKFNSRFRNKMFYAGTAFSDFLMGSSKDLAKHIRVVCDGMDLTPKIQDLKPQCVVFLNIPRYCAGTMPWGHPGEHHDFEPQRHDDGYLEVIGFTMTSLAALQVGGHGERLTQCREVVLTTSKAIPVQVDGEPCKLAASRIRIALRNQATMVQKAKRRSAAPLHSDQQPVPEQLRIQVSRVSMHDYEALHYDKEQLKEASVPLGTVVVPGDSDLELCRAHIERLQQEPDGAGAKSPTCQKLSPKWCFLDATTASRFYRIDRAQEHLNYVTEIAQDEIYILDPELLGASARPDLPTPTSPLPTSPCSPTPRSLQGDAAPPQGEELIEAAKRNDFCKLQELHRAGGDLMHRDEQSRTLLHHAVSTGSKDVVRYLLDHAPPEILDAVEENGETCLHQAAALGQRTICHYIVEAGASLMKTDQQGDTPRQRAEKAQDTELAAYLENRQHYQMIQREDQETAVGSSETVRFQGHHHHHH
T1 sequence (P23743 with tags, fused parts or gaps): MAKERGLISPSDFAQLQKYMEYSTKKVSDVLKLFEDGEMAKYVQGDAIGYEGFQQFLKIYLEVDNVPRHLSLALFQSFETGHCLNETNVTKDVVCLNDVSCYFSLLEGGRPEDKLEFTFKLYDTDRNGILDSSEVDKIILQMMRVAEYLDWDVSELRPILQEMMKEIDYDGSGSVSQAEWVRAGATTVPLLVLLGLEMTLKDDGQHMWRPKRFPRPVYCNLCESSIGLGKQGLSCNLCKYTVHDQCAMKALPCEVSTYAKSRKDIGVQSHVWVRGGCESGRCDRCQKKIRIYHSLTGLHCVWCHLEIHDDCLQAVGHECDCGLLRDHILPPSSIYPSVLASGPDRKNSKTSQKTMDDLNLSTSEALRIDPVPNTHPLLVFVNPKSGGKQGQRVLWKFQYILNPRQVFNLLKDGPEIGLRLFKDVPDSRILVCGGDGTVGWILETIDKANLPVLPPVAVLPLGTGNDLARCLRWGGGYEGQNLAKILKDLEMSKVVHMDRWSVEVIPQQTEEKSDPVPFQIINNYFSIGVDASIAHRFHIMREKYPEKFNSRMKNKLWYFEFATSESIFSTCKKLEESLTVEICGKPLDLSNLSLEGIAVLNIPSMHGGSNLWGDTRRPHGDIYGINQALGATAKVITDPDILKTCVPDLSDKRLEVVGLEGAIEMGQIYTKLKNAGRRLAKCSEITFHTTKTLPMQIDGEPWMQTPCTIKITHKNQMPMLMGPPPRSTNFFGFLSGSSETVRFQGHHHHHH

Row | SMILES | pIC50 (human DGKα; liposome (LIPGLO) assay) | pIC50 ([1]; Mus musculus, MC-38) | pIC50 (human DGKζ; liposome (LIPGLO) assay) | pIC50 [1] | pEC50 (Human venous whole blood; [2]) | other results
1 | Cn1c(=O)c(C#N)c(N2CCN(C(c3ccc(F)cc3)c3ccc(F)cc3)C(CO)C2)c2nc(C#N)ccc21 (single isomer, unassigned) [Example 15, 8-(4-(bis(4-fluorophenyl)methyl)-3-(hydroxymethyl)piperazin-1-yl)-5-methyl-6-oxo-5,6-dihydro-1,5-naphthyridine-2,7-dicarbonitrile] | 5.29 | 6.04 | 5.18 | – | – | pEC50 (naïve human CD8 T cells): 5.00
2 | Cn1c(=O)c(C#N)c(N2CCN(C(c3ccc(F)cc3)c3ccc(F)cc3)C(CO)C2)c2nc(C#N)ccc21 (single isomer, unassigned) [Example 16, 8-(4-(bis(4-fluorophenyl)methyl)-3-(hydroxymethyl)piperazin-1-yl)-5-methyl-6-oxo-5,6-dihydro-1,5-naphthyridine-2,7-dicarbonitrile] | 5.12 | – | 4.92 | 5.85 | – | pEC50 (naïve human CD8 T cells): 6.28
3 | Cn1c(=O)c(C#N)c(N2CCN(C(c3ccc(F)cc3)c3ccc(F)cc3)C(C(=O)O)C2)c2nc(C#N)ccc21 (single isomer, unassigned) [Example 54, 1-(bis(4-fluorophenyl)methyl)-4-(3,6-dicyano-1-methyl-2-oxo-1,2-dihydro-1,5-naphthyridin-4-yl)piperazine-2-carboxylic acid] | 3.70 | 5.00 | 3.92 | – | – | pEC50 (naïve human CD8 T cells): 5.00
4 | Cn1c(=O)c(C#N)c(N2CCN(C(c3ccc(F)cc3)c3ccc(F)cc3)C(C(=O)NC3CC3)C2)c2nc(C#N)ccc21 (single isomer, unassigned) [Example 60, 1-(bis(4-fluorophenyl)methyl)-N-cyclopropyl-4-(3,6-dicyano-1-methyl-2-oxo-1,2-dihydro-1,5-naphthyridin-4-yl)piperazine-2-carboxamide] | 3.62 | 5.00 | 4.14 | – | – | pEC50 (naïve human CD8 T cells; Homo sapiens, T-cell, 20 h): 5.00
5 | CC(C)OC(=O)C1CN(c2cc(=O)n(C)c3ccc(C#N)nc23)CCN1C(c1ccc(F)cc1)c1ccc(F)cc1 (single isomer, unassigned) [Example 63, Isopropyl 1-(bis(4-fluorophenyl)methyl)-4-(6-cyano-1-methyl-2-oxo-1,2-dihydro-1,5-naphthyridin-4-yl)piperazine-2-carboxylate] | 3.62 | – | 3.62 | 5.80 | – | pEC50 (naïve human CD8 T cells): 6.68
6 | CC(C)C(C)(F)C1CN(c2cc(=O)n(C)c3ccc(C#N)nc23)CCN1C(c1ccc(F)cc1)c1ccc(F)cc1 (single isomer, unassigned) [Example 90, 8-(4-(bis(4-fluorophenyl)methyl)-3-(2-fluoro-3-methylbutan-2-yl)piperazin-1-yl)-5-methyl-6-oxo-5,6-dihydro-1,5-naphthyridine-2-carbonitrile, TFA] | 3.62 | 5.32 | 3.62 | – | 4.70 | –
7 | COc1cc(F)ccc1C(c1ccc(F)cc1)N1C[C@H](C)N(c2c(C#N)c(=O)n(C)c3ccc(C#N)nc23)C[C@H]1C (single isomer, unassigned) [Example 112] | 4.11 | 5.80 | 5.59 | – | 5.15 | –
8 | COc1cc(F)ccc1C(c1ccc(F)cc1)N1C[C@H](C)N(c2c([N+](=O)[O-])c(=O)n(C)c3ccc(C#N)nc23)C[C@H]1C (single isomer, unassigned) [Example 122] | 3.68 | 5.42 | 5.32 | – | 5.00 | –
9 | CC1C(C)N(C(c2ccc(F)cc2)c2ccc(F)cc2)CCN1c1cc(=O)n(C)c2ccc(C#N)nc12 (single isomer, unassigned) [Example 123, 8-(4-(bis(4-fluorophenyl)methyl)-2,3-dimethylpiperazin-1-yl)-5-methyl-6-oxo-5,6-dihydro-1,5-naphthyridine-2-carbonitrile] | 5.62 | – | 3.62 | 5.62 | – | pEC50 (Human venous whole blood; [3]): 4.46
10 | CC1C(C)N(C(c2ccc(F)cc2)c2ccc(F)cc2)CCN1c1cc(=O)n(C)c2ccc(C#N)nc12 (single isomer, unassigned) [Example 124, 8-(4-(bis(4-fluorophenyl)methyl)-2,3-dimethylpiperazin-1-yl)-5-methyl-6-oxo-5,6-dihydro-1,5-naphthyridine-2-carbonitrile] | 5.00 | – | 4.82 | 6.41 | – | pEC50 (Human venous whole blood; [3]): 5.32
11 | COc1cc(F)ccc1C(c1ccc(F)cc1)N1CCN(c2cc(=O)n(C)c3ccc(C#N)nc23)[C@@H](C)C1 (single isomer, unassigned) [Example 129] | 4.92 | 6.15 | 6.09 | – | 5.27 | –
12 | COc1cc(F)ccc1C(c1ccc(F)cc1)N1CCN(c2cc(=O)n(C)c3ccc(C#N)nc23)[C@@H](C)C1 (single isomer, unassigned) [Example 130] | 4.74 | – | 6.02 | 6.12 | – | pEC50 (Human venous whole blood; [3]): 5.40
13 | Cn1c(=O)cc(N2CCN(C(c3ccc(F)cc3)c3ccc(F)cc3)CC2C#N)c2nc(C#N)ccc21 (single isomer, unassigned) [Example 143, 8-(4-(bis(4-fluorophenyl)methyl)-2-cyanopiperazin-1-yl)-5-methyl-6-oxo-5,6-dihydro-1,5-naphthyridine-2-carbonitrile] | 5.27 | 6.48 | 5.19 | – | 5.24 | –
14 | Cn1c(=O)cc(N2CCN(C(c3ccc(F)cc3)c3ccc(F)cc3)CC2c2ccccc2)c2nc(C#N)ccc21 (single isomer, unassigned) [Example 156, 8-(4-(bis(4-fluorophenyl)methyl)-2-phenylpiperazin-1-yl)-5-methyl-6-oxo-5,6-dihydro-1,5-naphthyridine-2-carbonitrile] | 5.07 | – | 5.01 | 6.40 | – | pEC50 (Human venous whole blood; [3]): 5.16
15 | Cc1ccc(C(c2ccc(F)cc2)N2C[C@H](C)N(c3cc(=O)n(C)c4ccc(C#N)nc34)C[C@H]2C)cc1 (single isomer, unassigned) [Example 251] | 6.17 | 7.49 | 6.49 | – | 6.36 | –
16 | Cc1ccc(C(C)N2CCN(c3c(C#N)c(=O)n(C)c4ccc(C#N)nc34)C[C@H]2C)cc1 (single isomer, unassigned) [Example 952] | – | – | – | – | – | pIC50 (human DGKα; DGKα liposome (LIPGLO) assay): 6.23; pIC50 ([1]; murine CTL, IFN-γ): 5.23; pEC50 (Human venous whole blood; [4]): 5.52; pIC50 (human DGKζ; DGKζ liposome (LIPGLO) assay): 5.64
17 | C[C@@H]1CN(c2c(Cl)c(=O)n(C)c3ccc(C#N)nc23)CCN1C(c1ccc(Cl)cc1)c1ccc(Cl)cc1 [Example 105, (R)-8-(4-(bis(4-chlorophenyl)methyl)-3-methylpiperazin-1-yl)-7-chloro-5-methyl-6-oxo-5,6-dihydro-1,5-naphthyridine-2-carbonitrile, dimethylformamide] | 5.85 | 7.13 | 6.09 | – | 5.37 | –
18 | Cc1nnc(C2CN(c3cc(=O)n(C)c4ccc(C#N)nc34)CCN2C(c2ccc(F)cc2)c2ccc(F)cc2)o1 (centres unmarked) [Example 126, 8-(4-(bis(4-fluorophenyl)methyl)-3-(5-methyl-1,3,4-oxadiazol-2-yl)piperazin-1-yl)-5-methyl-6-oxo-5,6-dihydro-1,5-naphthyridine-2-carbonitrile] | 3.64 | 5.00 | 4.51 | – | 4.70 | –
19 | C[C@@H]1CN(c2c(C#N)c(=O)n(C)c3ccc(C#N)nc23)CCN1Cc1ccc(F)cc1F [Example 985] | – | – | – | – | – | pIC50 (human DGKα; DGKα liposome (LIPGLO) assay): 5.66; pIC50 [1, 5]: 5.39; pEC50 (Human venous whole blood; [4]): 5.01; pIC50 (human DGKζ; DGKζ liposome (LIPGLO) assay): 5.52
20 | C[C@@H]1CN(c2c(C#N)c(=O)n(C)c3ccc(C#N)nc23)CCN1Cc1c(F)cc(F)cc1F [Example 986] | – | – | – | – | – | pIC50 (human DGKα; DGKα liposome (LIPGLO) assay): 5.38; pIC50 [1, 5]: 5.43; pEC50 (Human venous whole blood; [4]): 4.70; pIC50 (human DGKζ; DGKζ liposome (LIPGLO) assay): 5.59
